From patent US20040082550A1, “Tropolone derivative” (priority 2000, published 2004)

Test system: promyelocyte leukemia cell strain HL-60
Assay: Test for induction of cell differentiation in HL-60 cells (NBT reduction ability)
Format: cell-based
Conditions: for Ratio of cells for which differentiation was induced by each compound alone (%): calculated from NBT reduction ability; for Ratio of cells for which differentiation was induced by each compound in combination with 1 × 10^−7 M of HX630 (%): in combination with 1×10^−7 M HX630 (retinoid synergist)
Experimental: For each of the compounds of the examples, action for inducing cell differentiation was examined for each alone and in combination with 1×10^−7 M of HX630. According to the methods described in Japanese Patent Unexamined Publication (KOKAI) No. (Sho)61-76440/1986, differentiation of the cells of promyelocyte leukemia cell strain HL-60 into granulocytic series cells was determined based on morphological change and measurement of ability to reduce nitro blue tetrazolium (NBT). The ratios (%) of differentiated cells shown in the following table are those calculated from NBT reduction ability. HX630 is a retinoid synergist that enhances actions of retinoids, and the concentrations of −8, −7 and −6 mean that each compound was added at concentrations of 1×10^−8 M, 1×10^−7 M and 1×10^−6 M, respectively.

[1] = compound concentration -6 (1×10^−6 M)
[2] = compound concentration -7 (1×10^−7 M)
[3] = compound concentration -8 (1×10^−8 M)

Compound | Ratio of cells for which differentiation was induced by each compound alone (%) (concentration -6 (1×10^−6 M)) | Ratio of cells for which differentiation was induced by each compound alone (%) (concentration -7 (1×10^−7 M)) | Ratio of cells for which differentiation was induced by each compound alone (%) (concentration -8 (1×10^−8 M)) | Ratio of cells for which differentiation was induced by each compound in combination with 1 × 10^−7 M of HX630 (%) [1] | Ratio of cells for which differentiation was induced by each compound in combination with 1 × 10^−7 M of HX630 (%) [2] | Ratio of cells for which differentiation was induced by each compound in combination with 1 × 10^−7 M of HX630 (%) [3]
CC(C)(C)c1cc(C(=O)Nc2ccc(O)c(=O)cc2)cc(C(C)(C)C)c1 [Tp50] | 5.1% | 2.8% | 1.6% |  |  | 
CC1(C)CCC(C)(C)c2cc(C=CC(=O)Nc3ccc(O)c(=O)cc3)ccc21 [Tp90] | 67% | 0.9% | 0.7% | 43% | 2.1% | 1.5%
CC1(C)CCC(C)(C)c2cc(C(=O)Nc3ccc(O)c(=O)cc3)ccc21 [Tp80] | 21% | 26% | 7% | 79% | 85% | 82%
CC1(C)CCC(C)(C)c2cc3sc(-c4ccc(O)c(=O)cc4)cc3cc21 [Tp260] | 55% | 20% | 10% | 67% | 83% | 91%
CC1(C)CCC(C)(C)c2cc3cc(-c4ccc(O)c(=O)cc4)ccc3cc21 [Tp250] | 56% | 66% | 63% | 79% | 84% | 91%
Cc1cc2c(cc1C(=O)Nc1ccc(O)c(=O)cc1)C(C)(C)CCC2(C)C [Tp84] | 26% | 5% | 0.7% | 90% | 89% | 15%
CC1(C)CCC(C)(C)c2cc(-c3ccc(-c4ccc(O)c(=O)cc4)s3)ccc21 [Tp210] | 11% | 6% | 0.8% | 91% | 91% | 64%
CC1(C)CCC(C)(C)c2cc(CCc3ccc(O)c(=O)cc3)ccc21 [Tp150] | 60% | 5.4% | 1.5% | 50% | 80% | 9%
Cc1cc2c(cc1C#Cc1ccc(O)c(=O)cc1)C(C)(C)CCC2(C)C [Tp145] | 70% | 76% | 73% | 77% | 75% | 82%
CC1(C)CCC(C)(C)c2cc(C=CC(=O)Nc3ccc(Cl)c(=O)cc3)ccc21 [Tp93] | 9% | 0.8% | 0.6% | 40% | 0.8% | 3.6%
